We go through 21 compounds from US20230113037A1 (Bayer Aktiengesellschaft, priority 2019, published 2023).

Like-named read-outs stand apart in the source and are kept apart here. Bounds are passed on as bounds.

The target of experiment [1] is T1, AHR (Homo sapiens, UniProt P35869).
T1 construct: U87 MG glioblastoma cells (ATCC #HTB-14) endogenously expressing AHR; endogenous in cells; host or cells: U87 MG glioblastoma cells (ATCC #HTB-14)
T1 sequence (P35869 11-848): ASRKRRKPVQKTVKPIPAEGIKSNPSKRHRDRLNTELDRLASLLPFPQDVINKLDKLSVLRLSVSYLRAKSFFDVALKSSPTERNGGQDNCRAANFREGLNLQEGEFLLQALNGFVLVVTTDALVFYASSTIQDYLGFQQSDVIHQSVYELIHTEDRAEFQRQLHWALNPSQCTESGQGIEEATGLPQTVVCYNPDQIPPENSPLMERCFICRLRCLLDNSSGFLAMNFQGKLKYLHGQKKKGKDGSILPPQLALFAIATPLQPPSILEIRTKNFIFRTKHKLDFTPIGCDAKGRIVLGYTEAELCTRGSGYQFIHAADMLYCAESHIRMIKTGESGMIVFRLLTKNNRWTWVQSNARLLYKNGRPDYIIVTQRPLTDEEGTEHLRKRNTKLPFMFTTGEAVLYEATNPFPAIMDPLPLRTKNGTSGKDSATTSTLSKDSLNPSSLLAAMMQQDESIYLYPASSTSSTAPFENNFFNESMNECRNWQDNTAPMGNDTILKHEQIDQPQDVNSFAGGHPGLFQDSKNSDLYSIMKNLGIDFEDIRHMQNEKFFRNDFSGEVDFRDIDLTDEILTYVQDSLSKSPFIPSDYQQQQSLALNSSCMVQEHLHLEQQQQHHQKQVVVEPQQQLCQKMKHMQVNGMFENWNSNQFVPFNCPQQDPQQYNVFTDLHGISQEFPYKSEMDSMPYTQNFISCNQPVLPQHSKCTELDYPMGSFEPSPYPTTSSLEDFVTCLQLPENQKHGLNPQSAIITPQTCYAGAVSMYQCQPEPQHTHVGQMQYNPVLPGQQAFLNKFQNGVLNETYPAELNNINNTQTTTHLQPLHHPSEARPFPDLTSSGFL
Briefly: In vitro assay 1: antagonism in human cell line (AHR transactivation, firefly luciferase reporter, kynurenic acid prestimulated). Format: cell-based. Particulars: AHR Antagonism Human IC50 [M]. The method in brief: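 U87 MG + DRE-firefly/constitutive-Renilla stable reporters; kynurenic acid prestim; dual-luc read; Renilla = tox; normalized vs pos/neg controls (pos: 150 μM KYNA + 5 μM staurosporine).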
(In general: In a reporter assay the amount or activity of a reporter protein is the signal.)

The target in experiment [2] is T2, AHR (Mus musculus, UniProt P30561).
T2 sequence (P30561 1-848 P471L/N533S/M589L): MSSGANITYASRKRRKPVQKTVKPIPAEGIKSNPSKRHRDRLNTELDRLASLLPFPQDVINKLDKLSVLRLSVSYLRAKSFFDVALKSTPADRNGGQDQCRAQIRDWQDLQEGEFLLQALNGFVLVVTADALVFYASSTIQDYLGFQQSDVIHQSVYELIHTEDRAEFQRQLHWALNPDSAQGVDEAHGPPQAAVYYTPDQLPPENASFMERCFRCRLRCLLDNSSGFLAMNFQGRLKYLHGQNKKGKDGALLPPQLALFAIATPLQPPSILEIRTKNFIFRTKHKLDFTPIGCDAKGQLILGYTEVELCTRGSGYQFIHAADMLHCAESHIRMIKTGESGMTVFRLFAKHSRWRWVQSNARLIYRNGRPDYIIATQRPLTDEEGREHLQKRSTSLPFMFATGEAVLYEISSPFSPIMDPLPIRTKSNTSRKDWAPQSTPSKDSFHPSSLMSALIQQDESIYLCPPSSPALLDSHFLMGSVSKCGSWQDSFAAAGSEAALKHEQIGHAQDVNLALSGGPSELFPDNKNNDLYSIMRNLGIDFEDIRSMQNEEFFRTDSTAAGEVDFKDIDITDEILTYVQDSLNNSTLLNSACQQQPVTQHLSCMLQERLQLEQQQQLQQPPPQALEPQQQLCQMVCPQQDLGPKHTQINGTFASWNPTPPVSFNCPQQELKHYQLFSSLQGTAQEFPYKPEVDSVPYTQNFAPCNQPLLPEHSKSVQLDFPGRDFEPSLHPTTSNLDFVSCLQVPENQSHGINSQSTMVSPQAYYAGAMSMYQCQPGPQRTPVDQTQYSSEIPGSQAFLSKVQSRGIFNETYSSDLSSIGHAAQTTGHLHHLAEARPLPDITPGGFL
Briefly: In vitro assay 3: antagonism in mouse cell line (AHR transactivation, firefly luciferase reporter, kynurenic acid prestimulated). In kind it is cell-based. The method in brief:
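Mouse cells stably carrying a DRE-driven, AHR-inducible firefly luciferase reporter were prestimulated with the endogenous agonist kynurenic acid before compound addition. Luciferase activity was measured by luminescence and normalized to positive and negative controls, with cells lacking kynurenic acid serving as full-inhibition control. Repeat tests are reported as mean or median.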

[3] abbreviates: Hepa 1c1c7 cells, 200 μM kynurenic acid, 20 hours, firefly luciferase reporter, read-out: AHR Antagonism Mouse IC50.
Setting [4] is: mouse Hepa 1c1c7 cells, 200 μM kynurenic acid, 20 hours, read-out: AHR Antagonism Mouse IC50.
The mark [5] stands for this setting: read-out: AHR Antagonism Mouse IC50, mouse Hepa 1c1c7 cells, 200 μM kynurenic acid, 20 hours.

Turning to `COc1ccc(-c2nc3c4cccc(S(=O)(=O)C(C)C)c4nc(N[C@@H]4CCCCNC4=O)n3n2)cc1` [Example 843, (3R)-3-{[2-(4-methoxyphenyl)-7-(propane-2-sulfonyl)[1,2,4]triazolo[1,5-c]quinazolin-5-yl]amino}azepan-2-one], the IC50 – broadly, the concentration needed to halve the response being measured – against AHR [1] (firefly luciferase reporter) was 4.46e-09 M; on AHR [2] (setting [3]) it was 0.0111 µM.

Consider `C[C@H]1CN(C(=O)[C@@H](C)Nc2nc3c(Br)cccc3c3nc(-c4cnn(C)c4)nn23)CCO1` [Example 908, (2R)-2-{[7-bromo-2-(1-methyl-1H-pyrazol-4-yl)[1,2,4]triazolo[1,5-c]quinazolin-5-yl]amino}-1-[(2S)-2-methylmorpholin-4-yl]propan-1-one], for which the IC50 on AHR [1] (firefly luciferase reporter) was 2.87e-08 M; at AHR [2] (setting [3]), 0.0188 µM.

Turning to `CCS(=O)(=O)c1cccc2c1nc(N[C@@H]1CCCCNC1=O)n1nc(-c3ccc(OC)cc3)nc21` [Example 844, (3R)-3-{[7-(ethanesulfonyl)-2-(4-methoxyphenyl)[1,2,4]triazolo[1,5-c]quinazolin-5-yl]amino}azepan-2-one], the IC50 on AHR [1] (firefly luciferase reporter) turned out to be 1.76e-09 M; on AHR [2] (setting [3]) it was 0.0109 µM.

Take `Cn1cc(-c2nc3c4ccccc4nc(N[C@@H]4CCCCNC4=O)n3n2)nn1` [Example 435]: the IC50 was 1.3e-07 M on AHR [1] and 0.164 µM at AHR [2] (setting [4]).

In the case of `CCn1cc(-c2nc3c4cccc(Br)c4nc(N[C@@H]4CNCCNC4=O)n3n2)c(C)n1` [Example 974], the IC50 at AHR [1] (firefly luciferase reporter) was 8.12e-10 M; at AHR [2] (setting [3]), 0.00186 µM.

Take `O=C1NCCCC[C@H]1Nc1nc2ccccc2c2nc(-c3ccc(Br)cc3OC(F)(F)F)nn12` [Example 440, (3R)-3-({2-[4-bromo-2-(trifluoromethoxy)phenyl][1,2,4]triazolo[1,5-c]quinazolin-5-yl}amino)azepan-2-one]: the IC50 against AHR [1] turned out to be 2.43e-09 M; on AHR [2] (setting [4]) it was 0.000642 µM.

Take `COc1ccc(-c2nc3c4cc(Cl)ccc4nc(N[C@@H]4CCCCNC4=O)n3n2)cc1` [Example 235, (3R)-3-{[9-chloro-2-(4-methoxyphenyl)[1,2,4]triazolo[1,5-c]quinazolin-5-yl]amino}azepan-2-one]: the IC50 at AHR [1] is 2.34e-09 M; at AHR [2] (setting [4]), 0.00114 µM.

With `CC[C@@H](Nc1nc2c(Br)cccc2c2nc(-c3ccc(OC)cc3OC(F)(F)F)nn12)C(N)=O` [Example 567, (2R)-2-({7-bromo-2-[4-methoxy-2-(trifluoromethoxy)phenyl][1,2,4]triazolo[1,5-c]quinazolin-5-yl}amino)butanamide], the half-inhibitory concentration (IC50) stood at 1.21e-08 M at AHR [1] and 0.00305 µM at AHR [2] (setting [5]).

As for `CS(=O)(=O)c1ccc(-c2nc3c4cccc(Br)c4nc(N[C@H]4CCCCNC4=O)n3n2)cc1` [Example 680, (3S)-3-({7-bromo-2-[4-(methanesulfonyl)phenyl][1,2,4]triazolo[1,5-c]quinazolin-5-yl}amino)azepan-2-one], the results for the IC50 at AHR [1] and on AHR [2] (setting [5]) were 3.93e-08 M and 0.0356 µM, respectively.

With `CN1CC[C@@H](Nc2nc3ccccc3c3nc(-c4ccsc4)nn23)C1=O` [Example 345, (3R)-1-methyl-3-{[2-(thiophen-3-yl)[1,2,4]triazolo[1,5-c]quinazolin-5-yl]amino}pyrrolidin-2-one], the values for the IC50 against AHR [1] and on AHR [2] (setting [4]) were 1.24e-07 M and 0.027 µM, respectively.

Regarding `COc1ccc(-c2nc3c4cccc(Br)c4nc(N[C@@H]4COCCNC4=O)n3n2)cc1` [Example 699, (6R)-6-{[7-bromo-2-(4-methoxyphenyl)[1,2,4]triazolo[1,5-c]quinazolin-5-yl]amino}-1,4-oxazepan-5-one], the IC50 is 9.83e-10 M on AHR [1] and 0.00147 µM at AHR [2] (setting [4]).

`COc1cccc(-c2nc3c4ccccc4nc(N[C@@H]4CCCCNC4=O)n3n2)c1` [Example 75, (3R)-3-{[2-(3-methoxyphenyl)[1,2,4]triazolo[1,5-c]quinazolin-5-yl]amino}azepan-2-one]: the half-maximal inhibitory concentration (IC50) against AHR [1] was determined as 2.57e-09 M; at AHR [2] (setting [4]), 0.000359 µM.

In the case of `C[C@@H](Nc1nc2c(Br)cccc2c2nc(-c3cnn(C)c3)nn12)C(=O)N1CCNCC1` [Example 985, (2R)-2-{[7-bromo-2-(1-methyl-1H-pyrazol-4-yl)[1,2,4]triazolo[1,5-c]quinazolin-5-yl]amino}-1-(piperazin-1-yl)propan-1-one hydrogen chloride (1/1)], the half-inhibitory concentration (IC50) was determined as 6.49e-08 M against AHR [1] (firefly luciferase reporter) and 0.095 µM at AHR [2] (setting [3]).

For `O=C1NCCCC[C@@H]1Nc1nc2ccccc2c2nc(-c3cc(F)ccc3OC(F)(F)F)nn12` [Example 493, (3S)-3-({2-[5-fluoro-2-(trifluoromethoxy)phenyl][1,2,4]triazolo[1,5-c]quinazolin-5-yl}amino)azepan-2-one], the IC50 at AHR [1] is above 2e-05 M; on AHR [2] (setting [4]), 0.0369 µM.

Regarding `O=C1NCCCC[C@H]1Nc1nc2c(Br)cccc2c2nc(-c3ccccc3OC(F)(F)F)nn12` [Example 208, (3R)-3-({7-bromo-2-[2-(trifluoromethoxy)phenyl][1,2,4]triazolo[1,5-c]quinazolin-5-yl}amino)azepan-2-one], the IC50 on AHR [1] is 1.34e-06 M; at AHR [2] (setting [4]), 0.0238 µM.

Consider `Cn1cc(-c2nc3c4cccc(Br)c4nc(N[C@@H]4CCCCNC4=O)n3n2)cn1` [Example 212, (3R)-3-{[7-bromo-2-(1-methyl-1H-pyrazol-4-yl)[1,2,4]triazolo[1,5-c]quinazolin-5-yl]amino}azepan-2-one], for which the half-inhibitory concentration (IC50) against AHR [1] was found to be 9.71e-10 M; on AHR [2] (setting [4]) it was 0.00249 µM.

`O=C1NCCCC[C@H]1Nc1nc2ccccc2c2nc(-c3cnn(C4CCOCC4)c3)nn12` [Example 600, (3R)-3-({2-[1-(oxan-4-yl)-1H-pyrazol-4-yI][1,2,4]triazolo[1,5-c]quinazolin-5-yl}amino)azepan-2-one]: the 50% inhibitory concentration (IC50) at AHR [1] turned out to be 4.48e-08 M; at AHR [2] (setting [4]), 0.0313 µM.

Regarding `COc1cccc(-c2nc3c4ccccc4nc(NC4CNCCNC4=O)n3n2)c1` (stereo not drawn) [Example 115, 6-{[2-(3-methoxyphenyl)[1,2,4]triazolo[1,5-c]quinazolin-5-yl]amino}-1,4-diazepan-5-one], the IC50 turned out to be 1.11e-06 M at AHR [1] and 0.068 µM on AHR [2] (setting [4]).

`CCC[C@@H](Nc1nc2ccccc2c2nc(-c3ccc(S(C)(=O)=O)cc3)nn12)C(=O)NC` [Example 377, N^2-{2-[4-(methanesulfonyl)phenyl][1,2,4]triazolo[1,5-c]quinazolin-5-yl}-N-methyl-D-norvalinamide]: the figures for the IC50 on AHR [1] and on AHR [2] (setting [4]) were 3.28e-08 M and 0.0124 µM, respectively.

Turning to `COc1ccc(-c2nc3c4c(Br)cccc4nc(N[C@@H]4CCCCNC4=O)n3n2)cc1` [Example 164], the IC50 on AHR [1] was 2.44e-09 M; on AHR [2] (setting [4]), 0.00454 µM.

As to `O=C1NCCNCC1Nc1nc2cccc(Cl)c2c2nc(-c3cccc(F)c3)nn12` (stereo not drawn) [Example 284, 6-{[10-chloro-2-(3-fluorophenyl)[1,2,4]triazolo[1,5-c]quinazolin-5-yl]amino}-1,4-diazepan-5-one], the IC50 was above 2e-05 M on AHR [1] and 0.277 µM at AHR [2] (setting [4]).
